| SMILES | melting point [°C] |
| --- | --- |
| O=[N+]([O-])c1ccc(OCc2ccccc2)cc1 | 92 to 94 |
| CC(C)(C)OC(=O)CNC(=O)CCl | 66 to 68 |
| O=C(O)c1cc2ccccc2n1Cc1ccccc1 | 197 to 199 |
| O=C(c1ccccc1)c1ccccc1Br | 72 to 74 |
| COC(=O)C(Cc1c[nH]cn1)NC(C)=O (configuration not stated) | 116 to 118 |
| CC(N)C(=O)NO (configuration not stated) | 159 to 161 |
| COc1cc(N)ncc1Br | 136 to 138 |
| O=C(O)c1cn(-c2ccccc2)nc1-c1ccncc1 | 235 to 237 |
| O=C(Nc1ccc(O)cc1)c1ccco1 | 218 to 220 |
| COc1ccc(N)cc1S(=O)(=O)N1CCCCC1 | 93 to 95 |
| Cn1c(CO)nnc1C1CCC1 | 133 to 135 |
| Cc1cc(C(=O)O)[nH]c(=O)n1 | 209 to 211 |
| CC(C)(C)c1ccc(C(=O)CC#N)cc1 | 78 to 80 |
| Nc1cc(Cl)c(I)cn1 | 99 to 101 |
| CCNC(=O)Nc1cccc([N+](=O)[O-])c1 | 141 to 143 |
| O=C(O)CNC(=O)CNC(=O)c1ccco1 | 208 to 210 |
| Cc1nnc(N2CCC(=O)CC2)s1 | 95 to 97 |
| Oc1ccc(OCc2cccnc2)cc1 | 157 to 159 |
| NS(=O)(=O)c1cc(Br)c(Cl)c(C(=O)O)c1 | 219 to 221 |
| CC(C)=CCSCC(N)C(=O)O (configuration not stated) | 189 to 191 |
| CCN1CCN(S(=O)(=O)c2cccc(N)c2)CC1 | 94 to 96 |
| COc1ccc(NS(=O)(=O)c2ccc(NN)c([N+](=O)[O-])c2)cc1 | 204 to 206 |
| CC(C)n1ncc(C(N)=O)c1N | 194 to 196 |
| Cc1ncsc1-c1nc(CCl)no1 | 82 to 84 |
| CC(C)C(NS(=O)(=O)c1ccccc1F)C(=O)O (configuration not stated) | 159 to 161 |

| SMILES | melting point [°C] |
| --- | --- |
| COC(=O)c1ccc(C(=O)O)s1 | 194 to 196 |
| O=C(O)CCc1ccc(S(=O)(=O)N2CCCCCC2)cc1 | 122 to 124 |
| CC(Oc1ccc(C(C)(C)C)cc1)C(=O)O (configuration not stated) | 93 to 95 |
| CC(=O)c1ccc(-n2cnnn2)cc1 | 174 to 176 |
| COC(=O)c1cc(OC)c(S(=O)(=O)O)s1 | 109 to 111 |
| CCOC(=O)c1c(C)oc(N)c1C#N | 98 to 100 |
| CC(C)(C)OC(=O)N1CCCC(COS(C)(=O)=O)C1 (configuration not stated) | 76 to 78 |
| CC(C)(C)OC(=O)N1CCN(C(=O)C2CCCNC2)CC1 (configuration not stated) | 119 to 121 |
| CCCCCS(=O)(=O)CC(=O)O | 69 to 71 |
| CC(C)(C)C(=O)NCC(=O)O | 132 to 134 |
| CC(C)(C)OC(=O)NCc1ccc(C(=O)O)cc1 | 164 to 166 |
| O=C(NNc1ccccc1)Nc1ccccc1 | 178 to 180 |
| COc1ccc(C2=CCNCC2)cc1 | 73 to 75 |
| O=C(Nc1ccsc1C(=O)O)c1ccncc1 | 230 to 232 |
| C#CCNC(=O)Nc1ccccc1 | 133 to 135 |
| NC(=O)Cc1cccc(C(F)(F)F)c1 | 106 to 108 |
| CCN(Cc1ccccc1)S(=O)(=O)c1cc(C(=O)O)ccc1OC | 102 to 105 |
| Cc1cnc2c(c1)NCCN2 | 127 to 129 |
| OCCNc1ccc(Cl)nn1 | 133 to 135 |
| NC(=O)COc1cccnc1 | 93 to 95 |
| O=C(O)c1ccc(Br)cc1S | 203 to 205 |
| NC(=S)C1CCOC1 (configuration not stated) | 102 to 104 |
| Nc1ccccc1NC12CC3CC(CC(C3)C1)C2 | 92 to 94 |
| CC(O)C1CCNCC1 (configuration not stated) | 68 to 70 |
| O=C(O)C1(NS(=O)(=O)c2cccc(F)c2)CCCCC1 | 213 to 215 |

| SMILES | melting point [°C] |
| --- | --- |
| Nc1ccc(F)cc1-n1cccc1 | 84 to 86 |
| NS(=O)(=O)c1ccccc1S(=O)(=O)Cl | 179 to 181 |
| Fc1cccc(-n2ccnc2)n1 | 87 to 89 |
| Nc1ccc([N+](=O)[O-])c(Br)c1 | 169 to 171 |
| CCOC(=O)c1c[nH]n(CC(=O)O)c1=N | 195 to 197 |
| CC1C=CC2C(=O)N(C)C(=O)C2C1C(=O)O (configuration not stated) | 172 to 174 |
| O=C(O)c1csc(-c2cc(Br)cs2)n1 | 229 to 231 |
| COc1ccc(C(=O)O)cc1S(=O)(=O)N1CCCCC1C (configuration not stated) | 175 to 180 |
| Fc1ccc(NC2CCN(c3ccncc3)CC2)cc1 | 151 to 153 |
| CCOC(=O)/C(C#N)=C\Nc1ccc2c(c1)OCCCO2 | 124 to 126 |
| O=S1(=O)CC(SCc2ccccc2)c2ccccc21 (configuration not stated) | 72 to 74 |
| Nc1cccn(Cc2ccc(F)cc2)c1=O | 110 to 112 |
| NC(=O)c1csc(C=O)c1 | 155 to 157 |
| NCCNC(=O)c1ccccc1O | 38 to 40 |
| CC(=O)Nc1sc2c(c1C(=O)O)CCCC2 | 210 to 212 |
| c1nc(N2CCNCC2)c2ccsc2n1 | 71 to 73 |
| Sc1nnc(-c2cccs2)[nH]1 | 239 to 241 |
| Cn1nnc2cc(CCl)ccc21 | 83 to 85 |
| NS(=O)(=O)Cc1ccc(F)cc1F | 139 to 141 |
| OCc1nnc(Cl)s1 | 51 to 53 |
| FC(F)(F)C1(NCc2ccccc2)CCC2(CC1)OCCO2 | 83 to 85 |
| O=C(O)CNS(=O)(=O)c1cccc(C(F)(F)F)c1 | 80 to 82 |
| COc1ccc(C(N)C(=O)O)cc1OC (configuration not stated) | 218 to 220 |
| CC1=NN(C)C(=O)C1C (configuration not stated) | 132 to 134 |
| Cc1noc(C)c1S(N)(=O)=O | 151 to 152 |

| SMILES | melting point [°C] |
| --- | --- |
| O=c1[nH]ccn(C2CC2)c1=O | 161 to 163 |
| CC(C)(C(=O)O)c1ccc(N)cc1 | 165 to 167 |
| COCCSc1ccc([N+](=O)[O-])cc1C(=O)O | 159 to 161 |
| O=C(O)C1CCN(S(=O)(=O)c2cc(F)ccc2F)CC1 | 149 to 151 |
| CCC(CC)n1ccc(C(=O)O)n1 | 68 to 70 |
| N#CCCSc1ccc(C(F)(F)F)cc1N | 58 to 60 |
| S=C(NCc1cccnc1)NCc1cccnc1 | 157 to 159 |
| Cn1cc(C(=O)O)c(C(F)(F)F)c1 | 205 to 207 |
| CC(=O)c1ccc(OCCCC(=O)O)cc1 | 135 to 139 |
| COc1ccccc1C(=O)NCC(=O)O | 69 to 71 |
| O=C1NC2(CCCCC2)C(=O)N1Cc1ccccc1 | 151 to 153 |
| NCc1ccc(N2CCN(c3ccccc3)CC2)nc1 | 111 to 113 |
| COc1ccccc1NS(=O)(=O)c1ccc(NN)c([N+](=O)[O-])c1 | 181 to 183 |
| O=C(CCl)N(C1CCCC1)C1CCS(=O)(=O)C1 (configuration not stated) | < 17 |
| CC(C)(C)c1cc(=O)[nH]c(C(C)(C)C)n1 | 163 to 165 |
| CC(C(=O)O)N1C(=O)NC2(CCCC2)C1=O (configuration not stated) | 223 to 225 |
| COc1ccc(S(=O)(=O)N(C)C)cc1NC(=O)C(C)Cl (configuration not stated) | 107 to 109 |
| CC(C#N)Oc1cc(F)ccc1N (configuration not stated) | 89 to 91 |
| FC(F)(F)c1cccc(-c2ncc[nH]2)c1 | 151 to 153 |
| O=C(O)C1CCN(C(=O)c2cccc3ccccc23)CC1 | 190 to 192 |
| O=C(O)c1cc(S(=O)(=O)Cl)cc(Cl)c1F | 169 to 171 |
| CCOC(=O)C(NS(=O)(=O)CC)C(=O)OCC | 51 to 53 |
| OCc1ccc(N2CCCC2)cc1 | 61 to 63 |

Now from value to molecule:

| melting point [°C] | SMILES |
| --- | --- |
| 137 to 139 | CCCc1nc(C(=O)O)nn1-c1ccccc1F |
| 61 to 63 | Cc1nc(Cl)c(C)c(-n2cccn2)n1 |
| 98 to 100 | O=Cc1ccc(OCc2ncon2)cc1 |
| 241 to 243 | Cc1cc(C(=O)CCl)c(C)n1-c1ccc(S(N)(=O)=O)cc1 |
| 89 to 91 | CCc1noc(-c2ccc(N)c(Cl)c2)n1 |
| 268 to 270 | Cc1nn(-c2cccc(Cl)c2)c2sc(C(=O)O)cc12 |
| 183 to 185 | O=C1Nc2cc(OC(F)(F)F)ccc2C1=O |
| 173 to 175 | Cc1ccc(-c2nc(N)sc2C)cc1 |
| 86 to 88 | Cc1cc(Cl)c(N)cc1Cl |
| 97 to 99 | Clc1cccc2cc(I)cnc12 |
| 89 to 91 | Nc1cc(-c2cccc(C(F)(F)F)c2)no1 |
| 84 to 88 | CCN(CC)S(=O)(=O)c1ccc(Cl)c(N)c1 |
| 109 to 111 | CN(C)S(=O)(=O)c1c(Cl)nc2ccccn12 |
| 187 to 189 | Cc1cc(C(=O)O)c(C)n1-c1ccccn1 |
| 129 to 131 | Cc1nc2ccc(N)cc2o1 |
| 222 to 224 | Cc1ccc(-c2nnc(N)[nH]2)s1 |
| 105 to 107 | Cc1ccc(NC(=O)C(C)Cl)c(F)c1 (configuration not stated) |
| 124 to 126 | Cc1c(N)cccc1-n1cnnn1 |
| 170 to 172 | CNC(=O)c1ccc(Cl)nn1 |
| 239 to 241 | CN(C)S(=O)(=O)c1cc(C(=O)O)ccc1Cl |
| 105 to 107 | Cc1ccc(S(=O)(=O)C2(C(=O)O)CCC2)cc1 |
| 80 to 82 | Sc1cnnc2ccccc12 |

| melting point [°C] | SMILES |
| --- | --- |
| 109 to 111 | CC(O)c1nc2cc(Cl)ccc2s1 (configuration not stated) |
| 126 to 128 | Cc1ncc(-c2ccc(N)cc2)o1 |
| 241 to 243 | NC(=S)c1cc2ccccc2oc1=O |
| 159 to 161 | Cc1c(C(=O)O)nnn1-c1ccc(OC(C)C)cc1 |
| 148 to 150 | Cc1ccc2cc(C=O)c(Cl)nc2c1 |
| 73 to 75 | O=Cc1ccccc1OCc1ccccn1 |
| 268 to 270 | NNC(=O)c1ccc2c(=O)n3c(nc2c1)CCC3 |
| 115 to 117 | Cc1cc(Br)c(N)cc1[N+](=O)[O-] |
| 182 to 184 | Sc1nc2cc(Cl)ccc2n1CCOc1ccccc1 |
| 151 to 155 | O=c1[nH]c2ccc(S(=O)(=O)Cl)cc2o1 |
| 347 to 349 | CCn1c(=O)[nH]c2cc(C(=O)O)ccc2c1=O |
| 176 to 178 | COc1ccccc1NS(=O)(=O)c1cc(C(=O)O)ccc1Cl |
| 110 to 112 | Cc1ccc(-n2nnnc2S)c(C)c1 |
| 191 to 193 | Cc1nn(-c2cccc(C(F)(F)F)c2)c(C)c1C(=O)C(=O)O |
| 202 to 212 | O=C(O)c1cccc(CN2C(=O)c3ccccc3C2=O)c1 |
| 158 to 160 | O=C(O)c1cccc(-c2noc(C3CC3)n2)c1 |
| 173 to 175 | CCCCOc1ccc2cc(C(=O)O)[nH]c2c1 |
| 159 to 161 | O=C(O)c1csc(-c2ccccc2F)n1 |
| 149 to 151 | CCOC(=O)/C(C#N)=C/Nc1ccc(Br)cc1 |
| 51 to 53 | O=Cc1ccccc1OCC(F)(F)F |
| 87 to 89 | CS(=O)(=O)c1cccc(S(=O)(=O)Cl)c1 |
| 148 to 150 | Cc1ccc(-c2cc(N)on2)cc1 |

From a melting point compilation (Tetko et al.)
